Test results reported in ChEMBL document CHEMBL1201862, “PubChem BioAssay data set” (2004).
The source made the active and inactive calls.

Legend:
SUMO-activating enzyme [1] = molecular target: T1, SUMO-activating enzyme (Homo sapiens, UniProt Q9UBT2); experiment: blockers of UBC9-mediated SUMO conjugation – biochemical, AlphaScreen, SUMOylation inhibitor project, confirmation (AID 2018); type: functional
SUMO-activating enzyme [2] = molecular target: T1, SUMO-activating enzyme; experiment: blockers of SAE1/SAE2–UBC9 SUMO transfer – biochemical, HTRF, uHTS, primary screen (AID 2006); type: protein-complex assay
Cytochrome P450 2D6 = Cytochrome P450 2D6 (Homo sapiens, UniProt P10635);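 further: CYP2D6 member of a cytochrome P450 panel assay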
Cytochrome P450 2D6, sequence (P10635 whole entry): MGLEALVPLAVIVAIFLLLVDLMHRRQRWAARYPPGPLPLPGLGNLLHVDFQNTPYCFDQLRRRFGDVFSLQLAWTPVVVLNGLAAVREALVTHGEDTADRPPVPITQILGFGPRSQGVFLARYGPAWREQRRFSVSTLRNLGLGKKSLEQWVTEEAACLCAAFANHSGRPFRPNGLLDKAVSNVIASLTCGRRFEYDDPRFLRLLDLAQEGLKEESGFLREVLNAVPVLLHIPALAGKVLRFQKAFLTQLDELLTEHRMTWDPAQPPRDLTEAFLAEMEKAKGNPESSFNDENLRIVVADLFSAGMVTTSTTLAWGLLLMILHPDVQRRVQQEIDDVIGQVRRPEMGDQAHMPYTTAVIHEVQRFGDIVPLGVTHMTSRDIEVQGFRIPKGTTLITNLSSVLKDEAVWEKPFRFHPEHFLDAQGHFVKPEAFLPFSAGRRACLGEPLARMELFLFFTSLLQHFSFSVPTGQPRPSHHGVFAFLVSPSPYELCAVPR

Cytochrome P450 1A2 = molecular target: T2, Cytochrome P450 1A2 (Homo sapiens, UniProt P05177);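 further: PubChem cytochrome P450 panel assay, CYP1A2 panel member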
T2 sequence (P05177 whole entry): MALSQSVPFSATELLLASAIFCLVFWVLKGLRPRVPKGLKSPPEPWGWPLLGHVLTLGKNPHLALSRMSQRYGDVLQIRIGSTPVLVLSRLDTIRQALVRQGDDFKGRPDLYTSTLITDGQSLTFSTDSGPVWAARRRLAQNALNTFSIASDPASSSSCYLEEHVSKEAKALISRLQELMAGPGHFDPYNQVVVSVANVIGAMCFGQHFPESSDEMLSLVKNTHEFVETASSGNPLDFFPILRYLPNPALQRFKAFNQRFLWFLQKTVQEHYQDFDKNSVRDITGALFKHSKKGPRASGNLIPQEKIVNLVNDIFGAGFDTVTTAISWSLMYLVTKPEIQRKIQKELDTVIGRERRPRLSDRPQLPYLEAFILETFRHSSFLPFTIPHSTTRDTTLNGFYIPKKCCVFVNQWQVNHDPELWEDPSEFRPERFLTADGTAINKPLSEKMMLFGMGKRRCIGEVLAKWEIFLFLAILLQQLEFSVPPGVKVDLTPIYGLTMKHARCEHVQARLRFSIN

Cytochrome P450 2C19 = Cytochrome P450 2C19 (Homo sapiens, UniProt P33261); experiment: Cytochrome panel assay with activity outcomes. Panel member name: p450-cyp2c19 Compounds with AC50 equal or less than 10 uM are considered active; type: functional; details: read-out: AC50
Large T antigen = Large T antigen (Simian virus 40, UniProt P03070); type: functional, Betapolyomavirus macacae;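 further: Confirmatory-stage PubChem screen for compounds that inhibit SV40 T antigen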
Large T antigen, sequence (P03070 whole entry, the tested form may be a part): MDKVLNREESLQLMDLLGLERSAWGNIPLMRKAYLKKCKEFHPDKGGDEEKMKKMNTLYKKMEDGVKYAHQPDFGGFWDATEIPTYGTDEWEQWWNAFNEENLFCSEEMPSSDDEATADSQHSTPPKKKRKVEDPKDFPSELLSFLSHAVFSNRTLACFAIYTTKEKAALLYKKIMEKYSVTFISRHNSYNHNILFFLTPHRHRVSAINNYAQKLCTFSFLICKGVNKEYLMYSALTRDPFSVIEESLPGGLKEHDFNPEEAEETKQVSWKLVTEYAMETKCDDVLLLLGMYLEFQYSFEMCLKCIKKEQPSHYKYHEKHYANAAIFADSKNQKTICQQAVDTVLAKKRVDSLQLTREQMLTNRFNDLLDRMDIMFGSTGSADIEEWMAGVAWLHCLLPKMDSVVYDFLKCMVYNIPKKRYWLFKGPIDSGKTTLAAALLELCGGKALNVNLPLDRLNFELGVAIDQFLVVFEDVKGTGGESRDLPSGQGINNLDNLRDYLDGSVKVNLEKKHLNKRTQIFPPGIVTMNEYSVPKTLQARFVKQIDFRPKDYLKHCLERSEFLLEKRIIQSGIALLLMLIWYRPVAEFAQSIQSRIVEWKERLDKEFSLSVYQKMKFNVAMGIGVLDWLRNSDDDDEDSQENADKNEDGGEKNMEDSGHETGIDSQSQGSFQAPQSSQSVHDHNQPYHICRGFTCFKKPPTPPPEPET

[3] = molecular target: T3, RNA-binding protein pos-1 (Caenorhabditis elegans, UniProt G5EF15); experiment: disruptors of C. elegans POS-1 RNA interaction – biochemical, fluorescence polarization, dose response (AID 1964);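 further: purified POS-1 fused to maltose binding protein made in E. coli; potency of compounds blocking POS-1 binding to fluorescent RNA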
T3 sequence (G5EF15 whole entry): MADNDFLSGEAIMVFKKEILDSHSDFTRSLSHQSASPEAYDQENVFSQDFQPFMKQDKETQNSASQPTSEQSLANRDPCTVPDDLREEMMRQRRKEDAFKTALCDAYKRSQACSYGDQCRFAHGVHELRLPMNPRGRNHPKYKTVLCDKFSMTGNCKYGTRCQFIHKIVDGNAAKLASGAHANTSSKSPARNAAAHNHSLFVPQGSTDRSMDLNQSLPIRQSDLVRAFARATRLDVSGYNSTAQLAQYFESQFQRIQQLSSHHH

[4] = molecular target: T4, Zinc finger protein mex-5 (Caenorhabditis elegans, UniProt Q9XUB2); experiment: potency of MEX-5 RNA-binding blockers – biochemical, C. elegans, fluorescence polarization, dose response (AID 1960)
T4 sequence (Q9XUB2 whole entry): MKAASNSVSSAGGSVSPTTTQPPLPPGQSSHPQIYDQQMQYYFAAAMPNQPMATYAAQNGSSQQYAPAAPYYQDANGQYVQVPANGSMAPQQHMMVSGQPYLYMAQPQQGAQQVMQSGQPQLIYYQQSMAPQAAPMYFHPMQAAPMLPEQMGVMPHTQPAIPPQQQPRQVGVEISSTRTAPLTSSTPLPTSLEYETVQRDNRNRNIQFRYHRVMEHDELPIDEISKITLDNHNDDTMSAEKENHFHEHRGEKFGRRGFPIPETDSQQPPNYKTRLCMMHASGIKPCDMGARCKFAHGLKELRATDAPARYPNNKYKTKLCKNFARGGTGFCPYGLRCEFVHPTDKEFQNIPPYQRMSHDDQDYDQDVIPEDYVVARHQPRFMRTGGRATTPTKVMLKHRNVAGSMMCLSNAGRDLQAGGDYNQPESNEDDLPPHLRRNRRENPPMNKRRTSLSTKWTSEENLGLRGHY

[5] = molecular target: Signal transducer and activator of transcription 3 (Homo sapiens, UniProt P40763); experiment: STAT3 activation with BCL3 mRNA and toxicity – cell-based, […], BCL3 qPCR, cytotoxicity, late-stage follow-up, panel member STAT3 Activation (AID 2049)
Vero [6] = experiment: host cell viability loss, Vero E6 – synthesized analogs, cytotoxicity control for West Nile virus antiviral project, SAR follow-up (AID 2244); type: functional; details: Chlorocebus sabaeus
[7] = Luminescence Cell-Based Dose Retest to Confirm Inhibitors of Cancer Stem Cells. [Related pubchem assays (depositor defined):AID2717, AID2721]; type: functional; details: Homo sapiens
Vero [8] = experiment: inhibition of WNV-induced cytopathic effect – cell-based, CPE readout (AID 1621); type: functional; details: Chlorocebus sabaeus
Vero [9] = experiment: antiviral protection of cells from WNV – synthesized analogs, SAR follow-up (AID 2238); type: functional, cell-based; details: Chlorocebus sabaeus
[10] = molecular target: T5, Short transient receptor potential channel 4 (Mus musculus, UniProt Q9QUQ5); experiment: potentiation of DAMGO-evoked TRPC4 calcium signal – cell-based, HEK293 TRPC4/mu-opioid, Fluo-4 calcium, EC20 DAMGO, dose response (AID 434941); type: functional
T5 sequence (Q9QUQ5 whole entry): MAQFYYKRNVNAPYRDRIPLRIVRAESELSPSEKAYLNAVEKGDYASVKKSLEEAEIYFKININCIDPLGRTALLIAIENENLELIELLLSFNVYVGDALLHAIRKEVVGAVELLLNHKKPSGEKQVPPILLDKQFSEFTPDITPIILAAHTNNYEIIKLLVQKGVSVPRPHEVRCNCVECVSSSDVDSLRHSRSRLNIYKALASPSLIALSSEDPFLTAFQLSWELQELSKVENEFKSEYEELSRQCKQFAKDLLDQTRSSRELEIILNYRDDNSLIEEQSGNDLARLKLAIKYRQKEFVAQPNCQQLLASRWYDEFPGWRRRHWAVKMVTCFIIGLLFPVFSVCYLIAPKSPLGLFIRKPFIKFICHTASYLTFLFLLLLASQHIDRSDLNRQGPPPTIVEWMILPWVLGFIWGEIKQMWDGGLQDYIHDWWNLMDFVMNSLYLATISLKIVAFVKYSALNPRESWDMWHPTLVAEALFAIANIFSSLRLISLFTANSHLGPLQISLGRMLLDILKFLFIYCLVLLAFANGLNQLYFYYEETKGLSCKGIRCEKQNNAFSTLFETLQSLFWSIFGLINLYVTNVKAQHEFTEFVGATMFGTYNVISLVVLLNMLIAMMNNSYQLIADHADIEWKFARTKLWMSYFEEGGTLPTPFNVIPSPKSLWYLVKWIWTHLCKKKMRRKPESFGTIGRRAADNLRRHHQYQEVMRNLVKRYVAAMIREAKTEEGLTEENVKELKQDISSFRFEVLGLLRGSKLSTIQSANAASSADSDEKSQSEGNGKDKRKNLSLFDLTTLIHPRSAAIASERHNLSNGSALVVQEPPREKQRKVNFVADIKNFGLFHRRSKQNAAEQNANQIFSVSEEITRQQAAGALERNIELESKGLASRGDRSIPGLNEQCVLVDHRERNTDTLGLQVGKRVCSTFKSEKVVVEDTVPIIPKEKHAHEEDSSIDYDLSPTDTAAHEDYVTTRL

Fatty acid synthase [11] = molecular target: T6, Fatty acid synthase (Homo sapiens, UniProt P49327); experiment: inhibition of human FAS-TE enzyme activity – biochemical, endpoint fluorescence intensity, uHTS hits, dose response (AID 624327); type: functional;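 further: fluorescence from hydrolysis of an O-methyl fluorescein acyl ester substrate by the enzyme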
T6 sequence (P49327 whole entry): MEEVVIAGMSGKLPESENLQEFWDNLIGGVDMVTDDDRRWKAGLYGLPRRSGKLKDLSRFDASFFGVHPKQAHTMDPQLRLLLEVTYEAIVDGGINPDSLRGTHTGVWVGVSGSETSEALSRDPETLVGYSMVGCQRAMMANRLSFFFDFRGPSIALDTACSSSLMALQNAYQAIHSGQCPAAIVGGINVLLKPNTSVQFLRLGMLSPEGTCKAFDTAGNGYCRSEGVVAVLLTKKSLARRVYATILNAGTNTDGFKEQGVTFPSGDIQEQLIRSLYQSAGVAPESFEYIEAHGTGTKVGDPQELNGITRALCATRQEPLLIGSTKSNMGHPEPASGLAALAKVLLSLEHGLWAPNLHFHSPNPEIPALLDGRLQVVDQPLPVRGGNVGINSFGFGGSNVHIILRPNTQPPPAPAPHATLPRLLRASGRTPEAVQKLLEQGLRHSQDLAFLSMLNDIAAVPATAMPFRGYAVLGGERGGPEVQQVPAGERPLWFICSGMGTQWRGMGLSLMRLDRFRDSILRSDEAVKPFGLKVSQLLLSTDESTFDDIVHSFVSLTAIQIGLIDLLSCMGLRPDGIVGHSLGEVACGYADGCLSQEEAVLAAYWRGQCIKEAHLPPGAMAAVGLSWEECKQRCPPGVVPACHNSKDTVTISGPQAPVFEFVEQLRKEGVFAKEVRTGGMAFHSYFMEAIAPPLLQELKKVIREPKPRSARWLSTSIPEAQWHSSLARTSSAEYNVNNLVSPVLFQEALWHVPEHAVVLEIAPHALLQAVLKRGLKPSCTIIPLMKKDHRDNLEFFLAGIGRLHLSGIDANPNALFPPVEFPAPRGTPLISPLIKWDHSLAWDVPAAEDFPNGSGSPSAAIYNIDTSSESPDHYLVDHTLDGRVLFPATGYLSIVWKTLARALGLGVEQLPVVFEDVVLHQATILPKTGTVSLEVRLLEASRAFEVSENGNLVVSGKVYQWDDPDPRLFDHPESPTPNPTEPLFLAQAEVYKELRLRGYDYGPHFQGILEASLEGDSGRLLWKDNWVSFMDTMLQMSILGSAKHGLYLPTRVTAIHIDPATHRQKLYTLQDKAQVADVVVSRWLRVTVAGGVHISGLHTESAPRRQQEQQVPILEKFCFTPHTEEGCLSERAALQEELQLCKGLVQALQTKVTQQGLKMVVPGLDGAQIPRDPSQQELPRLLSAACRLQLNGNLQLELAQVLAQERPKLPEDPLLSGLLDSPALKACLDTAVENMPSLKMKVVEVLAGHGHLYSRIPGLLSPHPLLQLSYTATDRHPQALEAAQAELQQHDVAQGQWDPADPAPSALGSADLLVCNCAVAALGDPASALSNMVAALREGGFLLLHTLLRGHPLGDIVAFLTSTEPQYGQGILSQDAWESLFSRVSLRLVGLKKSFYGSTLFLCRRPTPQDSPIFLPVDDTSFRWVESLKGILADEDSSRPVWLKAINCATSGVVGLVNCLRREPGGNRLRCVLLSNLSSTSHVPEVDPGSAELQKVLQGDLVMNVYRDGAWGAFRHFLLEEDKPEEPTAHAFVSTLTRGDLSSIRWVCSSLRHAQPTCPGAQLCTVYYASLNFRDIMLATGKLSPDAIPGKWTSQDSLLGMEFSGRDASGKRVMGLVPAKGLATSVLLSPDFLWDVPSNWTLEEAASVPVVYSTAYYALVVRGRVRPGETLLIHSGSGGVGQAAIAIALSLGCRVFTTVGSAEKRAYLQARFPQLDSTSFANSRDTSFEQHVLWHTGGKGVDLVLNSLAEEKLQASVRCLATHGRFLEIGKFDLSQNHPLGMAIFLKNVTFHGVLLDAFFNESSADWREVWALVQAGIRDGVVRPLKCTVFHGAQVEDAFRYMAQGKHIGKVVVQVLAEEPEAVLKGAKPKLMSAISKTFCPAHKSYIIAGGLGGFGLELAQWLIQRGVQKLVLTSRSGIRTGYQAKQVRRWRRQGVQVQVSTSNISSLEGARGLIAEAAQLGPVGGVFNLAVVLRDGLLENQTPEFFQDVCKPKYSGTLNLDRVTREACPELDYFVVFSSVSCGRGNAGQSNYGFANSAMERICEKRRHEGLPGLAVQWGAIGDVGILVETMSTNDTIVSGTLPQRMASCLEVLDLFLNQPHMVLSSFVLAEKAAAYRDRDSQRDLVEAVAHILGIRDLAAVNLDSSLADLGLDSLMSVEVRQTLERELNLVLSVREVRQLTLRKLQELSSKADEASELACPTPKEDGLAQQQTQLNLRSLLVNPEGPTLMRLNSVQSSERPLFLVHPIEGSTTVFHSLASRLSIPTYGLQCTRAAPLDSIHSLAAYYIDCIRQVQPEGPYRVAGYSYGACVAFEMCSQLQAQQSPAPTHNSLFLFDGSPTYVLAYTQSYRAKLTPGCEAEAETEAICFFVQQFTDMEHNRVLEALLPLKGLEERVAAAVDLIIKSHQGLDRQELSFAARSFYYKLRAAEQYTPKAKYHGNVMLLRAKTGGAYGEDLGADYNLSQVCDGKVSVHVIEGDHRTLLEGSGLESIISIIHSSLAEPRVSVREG

[12] = molecular target: Bifunctional protein GlmU (Mycobacterium tuberculosis, UniProt P9WMN3); experiment: Inhibitors of Mycobacterial Glucosamine-1-phosphate acetyl transferase (GlmU). Secondary screen.; set-up: species or system Mycobacterium tuberculosis H37Rv
[13] = molecular target: T7, Calpain-2 catalytic subunit (Sus scrofa, UniProt P43367); experiment: m-calpain protease blockers, concentration series – biochemical, fluorogenic peptide substrate, dose response (AID 1420); type: functional
T7 sequence (P43367 whole entry): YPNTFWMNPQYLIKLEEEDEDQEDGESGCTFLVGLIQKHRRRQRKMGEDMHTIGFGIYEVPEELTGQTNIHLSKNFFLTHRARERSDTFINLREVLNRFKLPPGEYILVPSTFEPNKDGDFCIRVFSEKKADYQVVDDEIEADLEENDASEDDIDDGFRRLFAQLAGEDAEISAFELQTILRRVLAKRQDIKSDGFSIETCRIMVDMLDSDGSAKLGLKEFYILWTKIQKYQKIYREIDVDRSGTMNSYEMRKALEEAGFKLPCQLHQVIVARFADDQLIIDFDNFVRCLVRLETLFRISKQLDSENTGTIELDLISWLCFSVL

Fatty acid synthase [14] = molecular target: T6, Fatty acid synthase; experiment: inhibition of human FAS-TE enzyme activity – biochemical, kinetic fluorescence intensity, dose response (AID 624326); type: functional;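 further: rate of fluorescence rise from hydrolysis of a fluorogenic O-methyl fluorescein ester substrate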
Streptokinase A = molecular target: T8, Streptokinase A (Streptococcus pyogenes serotype M1, UniProt P10520); experiment: viability-normalized secreted streptokinase activity reduction – plasminogen activation absorbance, OD405, dose response (AID 1914); type: functional, Streptococcus pyogenes M1 GAS;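 further: secreted streptokinase activity via plasminogen activation per viability signal from cell pellet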
T8 sequence (P10520 whole entry): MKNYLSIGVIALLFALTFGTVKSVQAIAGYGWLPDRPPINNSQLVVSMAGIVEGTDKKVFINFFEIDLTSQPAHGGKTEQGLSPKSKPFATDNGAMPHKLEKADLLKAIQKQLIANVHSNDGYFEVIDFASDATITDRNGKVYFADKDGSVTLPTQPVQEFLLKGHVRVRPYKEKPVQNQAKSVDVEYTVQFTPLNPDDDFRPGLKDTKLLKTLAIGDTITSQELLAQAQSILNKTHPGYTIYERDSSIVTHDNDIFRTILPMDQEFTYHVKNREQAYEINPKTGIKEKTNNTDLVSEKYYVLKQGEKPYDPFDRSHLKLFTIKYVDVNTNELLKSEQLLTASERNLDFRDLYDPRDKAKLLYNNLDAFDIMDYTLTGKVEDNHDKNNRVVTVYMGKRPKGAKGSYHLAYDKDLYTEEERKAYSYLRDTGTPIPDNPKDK

Streptococcus = experiment: GAS UMAA2166 growth inhibition – luminescence, BacTiterGlo, counter-screen for streptokinase expression inhibitor project, dose response (AID 1915); type: functional, organism-based;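 further: potency for reduction of bacterial viability or growth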
[15] = system: Streptococcus sp. 'group A'; experiment: Streptococcus pyogenes SK(-)GAS viability under kanamycin – luminescence, BacTiterGlo, confirmation, counter-screen for streptokinase expression inhibitor project, dose response (AID 1900); type: functional, organism-based
Aminopeptidase N = molecular target: T9, Aminopeptidase N (Plasmodium falciparum FcB1/Columbia, UniProt O96935); experiment: malaria alanyl aminopeptidase activity blockers – biochemical, fluorogenic H-Leu-NHMec substrate, 1536-well (AID 1445); set-up: species or system Plasmodium falciparum 3D7, 3D7
T9 sequence (O96935 whole entry): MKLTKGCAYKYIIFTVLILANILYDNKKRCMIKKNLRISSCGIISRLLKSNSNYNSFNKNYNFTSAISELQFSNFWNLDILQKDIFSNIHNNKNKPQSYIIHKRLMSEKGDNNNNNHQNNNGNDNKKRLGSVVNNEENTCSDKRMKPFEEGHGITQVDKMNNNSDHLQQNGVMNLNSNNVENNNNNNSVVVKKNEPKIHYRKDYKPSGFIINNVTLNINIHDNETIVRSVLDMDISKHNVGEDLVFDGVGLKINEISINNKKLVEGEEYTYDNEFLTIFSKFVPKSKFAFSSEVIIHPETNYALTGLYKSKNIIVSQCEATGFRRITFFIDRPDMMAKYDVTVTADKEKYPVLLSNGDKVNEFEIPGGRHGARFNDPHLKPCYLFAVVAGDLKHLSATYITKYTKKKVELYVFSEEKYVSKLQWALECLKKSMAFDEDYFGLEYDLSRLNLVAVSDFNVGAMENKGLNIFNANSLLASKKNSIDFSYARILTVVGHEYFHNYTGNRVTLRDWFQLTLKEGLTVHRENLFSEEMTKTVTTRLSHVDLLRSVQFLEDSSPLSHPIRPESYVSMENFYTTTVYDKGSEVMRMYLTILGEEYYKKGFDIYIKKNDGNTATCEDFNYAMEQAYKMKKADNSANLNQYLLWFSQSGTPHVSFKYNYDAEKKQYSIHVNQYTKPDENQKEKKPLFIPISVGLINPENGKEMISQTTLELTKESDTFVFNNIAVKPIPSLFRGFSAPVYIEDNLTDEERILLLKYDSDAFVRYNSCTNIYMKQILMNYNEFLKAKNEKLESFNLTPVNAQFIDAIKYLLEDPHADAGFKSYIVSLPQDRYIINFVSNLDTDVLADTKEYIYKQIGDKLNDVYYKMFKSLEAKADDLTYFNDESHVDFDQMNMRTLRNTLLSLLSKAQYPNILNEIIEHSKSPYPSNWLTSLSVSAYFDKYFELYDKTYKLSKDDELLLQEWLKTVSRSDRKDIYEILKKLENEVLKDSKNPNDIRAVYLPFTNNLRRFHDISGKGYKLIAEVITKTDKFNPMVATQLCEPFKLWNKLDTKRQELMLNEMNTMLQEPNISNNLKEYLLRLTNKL

[16] = molecular target: Envelope glycoprotein gp160 (Human immunodeficiency virus 1, UniProt Q6QLK5); experiment: cell-free HIV fusion peptide-binding blockers – biochemical, uHTS, fluorescence dequenching, […] (AID 1986)

T1 sequence (Q9UBE0 whole entry): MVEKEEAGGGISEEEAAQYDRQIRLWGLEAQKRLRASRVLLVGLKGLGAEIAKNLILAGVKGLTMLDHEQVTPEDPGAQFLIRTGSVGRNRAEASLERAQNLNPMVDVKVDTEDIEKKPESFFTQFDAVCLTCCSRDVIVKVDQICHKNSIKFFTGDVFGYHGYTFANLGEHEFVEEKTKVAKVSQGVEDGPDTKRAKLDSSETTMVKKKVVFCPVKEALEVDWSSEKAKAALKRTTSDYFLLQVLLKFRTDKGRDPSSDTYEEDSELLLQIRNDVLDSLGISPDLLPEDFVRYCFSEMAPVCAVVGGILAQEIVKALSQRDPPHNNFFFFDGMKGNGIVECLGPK
T1 sequence (Q9UBT2 whole entry): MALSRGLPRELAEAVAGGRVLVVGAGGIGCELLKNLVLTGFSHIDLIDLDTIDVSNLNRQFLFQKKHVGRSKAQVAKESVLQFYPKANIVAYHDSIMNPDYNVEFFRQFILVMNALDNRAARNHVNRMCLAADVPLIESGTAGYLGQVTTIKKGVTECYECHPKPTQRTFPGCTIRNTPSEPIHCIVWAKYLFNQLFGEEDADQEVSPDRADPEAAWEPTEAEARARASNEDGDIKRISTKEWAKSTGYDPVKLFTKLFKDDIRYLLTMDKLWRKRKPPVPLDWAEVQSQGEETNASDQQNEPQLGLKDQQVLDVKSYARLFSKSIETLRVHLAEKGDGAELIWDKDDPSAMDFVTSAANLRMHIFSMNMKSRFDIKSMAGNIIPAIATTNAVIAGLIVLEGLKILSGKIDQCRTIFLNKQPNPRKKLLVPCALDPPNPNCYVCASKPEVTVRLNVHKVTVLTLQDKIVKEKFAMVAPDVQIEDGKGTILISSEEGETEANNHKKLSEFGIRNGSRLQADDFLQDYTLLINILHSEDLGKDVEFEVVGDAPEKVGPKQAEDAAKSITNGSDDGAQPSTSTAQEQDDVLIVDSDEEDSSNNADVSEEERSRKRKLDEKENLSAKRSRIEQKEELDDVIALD

N=C1/C(=C\c2ccc(SCc3ccco3)o2)C(=O)N=C2SC=NN12
inconclusive: AC50 (Cytochrome P450 2D6) 15.8 µM | AC50 (Cytochrome P450 1A2) 1.58 µM | AC50 (Cytochrome P450 2C19) 15.8 µM
> 300 µM (not active): EC50 [3] | EC50 [4]
active: IC50 (SUMO-activating enzyme [1]) 2.28 µM | IC50 (SUMO-activating enzyme [2]) 32.7 µM | IC50 (Large T antigen) 59.6 µM

COc1cc(NC(=O)c2cc(C(C)C)on2)c(OC)cc1Cl
active: EC50 [5] 0.00104 µM

CCN(CC)CCCN=C(S)N1CCN(c2nc(-c3ccccc3)cs2)CC1
active: CC50 (Vero [6]) 15.3 µM | AC50 [7] 3.77 µM | IC50 (Vero [8]) > 100 µM | IC50 (Vero [9]) 17.3 µM

CN(C)CCOc1cc(Cl)cc(Cl)c1
active: EC50 [10] 0.67 µM

O=c1c(C(c2ccc([N+](=O)[O-])cc2)c2c(O)oc3ccccc3c2=O)c(O)oc2ccccc12
active: IC50 (Fatty acid synthase [11]) 4.65 µM | IC50 [12] 122 µM | IC50 [13] 7.83 µM | IC50 (Fatty acid synthase [14]) 3.67 µM | EC50 (Streptokinase A) 13.4 µM | EC50 (Streptococcus) 102 µM | EC50 [15] 8.09 µM | IC50 (Aminopeptidase N) 34 µM | IC50 [16] 13.8 µM
